Test results taken from the NIST ThermoML archive (doi:10.1021/je900327x).
Numbers after ± are expanded uncertainties.

How the values were obtained:
[1] = refractive index (Na D-line) (dimensionless); conditions: 298.15 K; 101.33 kPa; Liquid; Standard Abbe refractometry
[2] = 298.15 K; 101.33 kPa; Liquid; Vibrating tube method

| SMILES | refractive index [1] | mass density [2] |
| --- | --- | --- |
| C1COCO1 [1,3-dioxolane] | 1.39779 ± 0.00068 | 1058.87 ± 0.15 kg/m3 |
| CC(C)CC(C)(C)C [2,2,4-trimethylpentane] | 1.38887 ± 0.00068 | 687.73 ± 0.21 kg/m3 |
| CC(C)O [propan-2-ol] | 1.37509 ± 0.00068 | 781.01 ± 0.2 kg/m3 |
